Among the data in ChEMBL document CHEMBL1201862, “PubChem BioAssay data set” (2004) are IC50, AC50 and EC50 values, retold here.

Active and inactive are the calls of the source. Where only a bound is given, the exact number is not on record here.

The target in experiment [1] is T1, Rac GTPase-activating protein 1 (Homo sapiens, UniProt Q9H0H5).
T1 sequence (Q9H0H5 whole entry): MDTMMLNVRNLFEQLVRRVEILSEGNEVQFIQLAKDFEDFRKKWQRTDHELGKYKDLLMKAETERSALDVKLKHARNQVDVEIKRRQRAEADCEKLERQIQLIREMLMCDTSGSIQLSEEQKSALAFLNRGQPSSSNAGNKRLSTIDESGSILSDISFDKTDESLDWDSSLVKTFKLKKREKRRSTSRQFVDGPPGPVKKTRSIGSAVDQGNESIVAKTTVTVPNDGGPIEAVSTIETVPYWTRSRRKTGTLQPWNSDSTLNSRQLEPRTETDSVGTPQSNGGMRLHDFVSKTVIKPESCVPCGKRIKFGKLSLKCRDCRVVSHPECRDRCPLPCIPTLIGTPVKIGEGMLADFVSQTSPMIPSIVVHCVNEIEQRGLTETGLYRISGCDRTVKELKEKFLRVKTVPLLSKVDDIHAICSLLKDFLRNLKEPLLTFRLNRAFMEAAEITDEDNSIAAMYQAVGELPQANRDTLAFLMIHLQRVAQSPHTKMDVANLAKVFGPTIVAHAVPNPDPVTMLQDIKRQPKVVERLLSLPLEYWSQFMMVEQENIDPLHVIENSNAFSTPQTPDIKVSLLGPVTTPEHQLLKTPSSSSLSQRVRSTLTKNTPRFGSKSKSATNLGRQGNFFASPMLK
Description: MgcRacGAP GTPase-activating activity inhibitors, confirmation, biochemical, ADP Hunter fluorescence, primary and confirmatory (AID 624330). Format: functional.

The target of the next experiment is T2, Protein Tat (Human immunodeficiency virus type 1 group M subtype B (isolate HXB2)(HIV-1), UniProt P04608).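 Note: tat binding to TAR RNA read out by fluorescence polarization.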
T2 sequence (P04608 whole entry): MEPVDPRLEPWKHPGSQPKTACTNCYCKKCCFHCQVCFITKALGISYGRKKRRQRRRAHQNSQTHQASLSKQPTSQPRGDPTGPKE
The class given is functional.

For a further experiment, the target named is Keap1/Nrf2 (Homo sapiens, UniProt Q14145). Description: Keap1-Nrf2 protein-protein interaction inhibitors, dose response, biochemical, fluorescence polarization, cherry-picked samples (AID 588683).
Another experiment concerns the target ORF 73 (Human herpesvirus 8, UniProt O40947). Description: inhibitors of C-LANA binding to LBS DNA, dose response, biochemical, fluorescence polarization, cherry-picked samples (AID 504725).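 Note: fluorescence polarization of a labeled DNA duplex reporting LANA DNA binding; potency is for inhibitors that block LANA binding to the DNA.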 Also noted: species or system Human gammaherpesvirus 8.
Experiment [2] deals with T3, Voltage-gated N-type calcium channel alpha-1B subunit/Amyloid beta A4 precursor protein-binding family A member 1 (Homo sapiens, UniProt Q00975+Q02410). Format: protein assay.
T3 sequence (Q00975 whole entry): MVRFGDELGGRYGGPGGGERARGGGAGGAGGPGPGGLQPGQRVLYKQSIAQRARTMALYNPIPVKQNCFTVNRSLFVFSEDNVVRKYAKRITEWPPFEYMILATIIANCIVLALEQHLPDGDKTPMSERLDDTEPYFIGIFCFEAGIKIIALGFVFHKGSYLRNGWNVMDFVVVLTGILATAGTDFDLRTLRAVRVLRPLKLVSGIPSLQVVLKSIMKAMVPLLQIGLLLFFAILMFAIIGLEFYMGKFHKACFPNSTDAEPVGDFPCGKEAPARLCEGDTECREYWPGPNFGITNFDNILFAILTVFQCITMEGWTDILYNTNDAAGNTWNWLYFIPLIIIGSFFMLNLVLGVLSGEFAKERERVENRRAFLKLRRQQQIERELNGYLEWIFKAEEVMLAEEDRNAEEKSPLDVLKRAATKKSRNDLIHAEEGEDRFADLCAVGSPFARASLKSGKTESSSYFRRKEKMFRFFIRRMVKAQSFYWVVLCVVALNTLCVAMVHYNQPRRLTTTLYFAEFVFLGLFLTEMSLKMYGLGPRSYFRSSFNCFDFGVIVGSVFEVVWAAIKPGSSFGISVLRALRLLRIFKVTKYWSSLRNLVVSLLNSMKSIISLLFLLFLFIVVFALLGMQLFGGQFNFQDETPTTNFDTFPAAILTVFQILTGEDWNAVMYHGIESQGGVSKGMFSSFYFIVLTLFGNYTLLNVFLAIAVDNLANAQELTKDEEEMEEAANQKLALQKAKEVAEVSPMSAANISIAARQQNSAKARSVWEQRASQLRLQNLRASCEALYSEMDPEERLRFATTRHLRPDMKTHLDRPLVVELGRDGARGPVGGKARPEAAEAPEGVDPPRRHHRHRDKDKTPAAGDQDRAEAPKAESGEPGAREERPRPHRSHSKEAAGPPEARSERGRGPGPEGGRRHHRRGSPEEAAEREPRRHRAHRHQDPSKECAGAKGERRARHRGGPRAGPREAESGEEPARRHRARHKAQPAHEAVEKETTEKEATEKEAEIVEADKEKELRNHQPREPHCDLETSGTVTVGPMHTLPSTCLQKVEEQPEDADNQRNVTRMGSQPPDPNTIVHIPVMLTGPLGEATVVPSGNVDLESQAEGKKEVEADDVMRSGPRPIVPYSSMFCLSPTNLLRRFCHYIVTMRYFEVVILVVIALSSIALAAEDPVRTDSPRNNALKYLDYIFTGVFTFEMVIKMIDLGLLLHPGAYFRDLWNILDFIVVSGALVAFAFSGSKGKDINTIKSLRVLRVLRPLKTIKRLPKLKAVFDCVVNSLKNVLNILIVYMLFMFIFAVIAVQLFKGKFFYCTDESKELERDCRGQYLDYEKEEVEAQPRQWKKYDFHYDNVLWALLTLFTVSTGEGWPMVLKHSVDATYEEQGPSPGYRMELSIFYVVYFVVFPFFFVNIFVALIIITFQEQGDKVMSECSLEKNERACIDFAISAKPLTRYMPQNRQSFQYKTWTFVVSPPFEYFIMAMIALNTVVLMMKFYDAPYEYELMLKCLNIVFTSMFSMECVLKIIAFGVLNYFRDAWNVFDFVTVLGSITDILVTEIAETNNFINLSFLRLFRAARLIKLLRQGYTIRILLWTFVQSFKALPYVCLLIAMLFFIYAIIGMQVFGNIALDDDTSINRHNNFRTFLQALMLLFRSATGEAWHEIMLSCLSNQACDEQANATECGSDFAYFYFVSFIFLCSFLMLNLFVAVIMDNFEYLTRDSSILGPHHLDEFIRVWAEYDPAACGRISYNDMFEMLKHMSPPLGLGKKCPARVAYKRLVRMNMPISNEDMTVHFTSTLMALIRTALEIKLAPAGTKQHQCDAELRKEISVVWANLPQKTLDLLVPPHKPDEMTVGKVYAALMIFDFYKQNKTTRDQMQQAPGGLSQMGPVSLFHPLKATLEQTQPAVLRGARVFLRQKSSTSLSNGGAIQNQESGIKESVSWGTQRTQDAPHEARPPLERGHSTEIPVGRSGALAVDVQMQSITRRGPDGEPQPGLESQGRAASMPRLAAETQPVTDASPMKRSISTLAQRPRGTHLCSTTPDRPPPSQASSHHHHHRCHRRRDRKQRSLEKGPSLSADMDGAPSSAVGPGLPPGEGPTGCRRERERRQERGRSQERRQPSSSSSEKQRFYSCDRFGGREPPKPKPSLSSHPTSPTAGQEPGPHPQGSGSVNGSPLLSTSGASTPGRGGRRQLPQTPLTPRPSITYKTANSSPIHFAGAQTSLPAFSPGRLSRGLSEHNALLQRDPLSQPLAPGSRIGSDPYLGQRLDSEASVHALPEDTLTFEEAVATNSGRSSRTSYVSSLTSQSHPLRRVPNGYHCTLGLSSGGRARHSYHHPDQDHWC
T3 sequence (Q02410 whole entry): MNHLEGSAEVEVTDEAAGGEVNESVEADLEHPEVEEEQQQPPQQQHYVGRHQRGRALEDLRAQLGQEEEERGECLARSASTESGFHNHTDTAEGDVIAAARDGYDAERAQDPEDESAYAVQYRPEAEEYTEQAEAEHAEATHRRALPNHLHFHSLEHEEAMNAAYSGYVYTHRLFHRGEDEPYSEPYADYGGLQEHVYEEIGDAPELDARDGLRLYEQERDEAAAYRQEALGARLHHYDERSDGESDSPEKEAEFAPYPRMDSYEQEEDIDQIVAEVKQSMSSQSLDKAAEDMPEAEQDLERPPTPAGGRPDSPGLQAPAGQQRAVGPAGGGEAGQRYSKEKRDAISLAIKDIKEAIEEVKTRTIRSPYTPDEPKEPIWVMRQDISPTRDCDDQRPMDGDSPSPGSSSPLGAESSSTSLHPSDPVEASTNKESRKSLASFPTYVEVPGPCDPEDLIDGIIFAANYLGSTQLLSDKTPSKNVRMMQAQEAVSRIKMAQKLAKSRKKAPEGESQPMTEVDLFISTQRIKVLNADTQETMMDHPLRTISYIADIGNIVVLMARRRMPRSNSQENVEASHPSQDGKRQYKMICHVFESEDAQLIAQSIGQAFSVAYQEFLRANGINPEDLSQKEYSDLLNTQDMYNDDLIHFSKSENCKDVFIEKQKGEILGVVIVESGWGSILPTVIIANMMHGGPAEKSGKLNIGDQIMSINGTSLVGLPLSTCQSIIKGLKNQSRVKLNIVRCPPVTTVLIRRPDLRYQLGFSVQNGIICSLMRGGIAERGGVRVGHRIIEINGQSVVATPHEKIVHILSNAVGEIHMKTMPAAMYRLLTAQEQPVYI
In experiment [3] the target is Glucose-6-phosphate 1-dehydrogenase (Homo sapiens, UniProt P11413). Description: human G6PD enzyme inhibitors, dose response, selectivity assay for P. falciparum G6PD inhibitor project, biochemical, fluorescence (AID 504792). Format: functional.
Chain of Glucose-6-phosphate 1-dehydrogenase (P11413 whole entry, the tested form may be a part): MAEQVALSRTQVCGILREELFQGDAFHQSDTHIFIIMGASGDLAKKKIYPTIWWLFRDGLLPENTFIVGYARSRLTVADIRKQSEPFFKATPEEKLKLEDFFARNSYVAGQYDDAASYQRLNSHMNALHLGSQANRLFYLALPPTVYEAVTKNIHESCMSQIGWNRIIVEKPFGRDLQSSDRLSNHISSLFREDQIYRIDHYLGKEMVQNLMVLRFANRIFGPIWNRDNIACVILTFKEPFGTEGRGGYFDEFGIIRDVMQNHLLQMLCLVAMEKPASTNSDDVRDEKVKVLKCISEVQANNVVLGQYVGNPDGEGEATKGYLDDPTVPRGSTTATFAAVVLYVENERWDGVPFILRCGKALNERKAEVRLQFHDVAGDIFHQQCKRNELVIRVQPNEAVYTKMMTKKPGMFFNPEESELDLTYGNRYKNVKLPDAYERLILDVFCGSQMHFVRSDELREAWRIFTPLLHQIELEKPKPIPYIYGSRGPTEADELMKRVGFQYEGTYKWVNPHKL
Experiment [4] can be described thus: Fluorescence-based cell-based high throughput dose response assay for inhibitors of the interaction of nucleotide-binding oligomerization domain containing 2 (NOD2) and the receptor-interacting serine-threonine kinase 2 (RIPK2). The class given is functional. Particulars: Homo sapiens.
Experiment [5] concerns the target T3, Voltage-gated N-type calcium channel alpha-1B subunit/Amyloid beta A4 precursor protein-binding family A member 1. Format: protein assay. The source holds these as a separate data set.
Another experiment addresses Large T antigen (Simian virus 40, UniProt P03070). The class given is functional, Betapolyomavirus macacae.
A further experiment addresses Beta Lactamase (Pseudomonas aeruginosa, UniProt Q932Y6). Description: beta-lactamase reporter inhibitor potency, dose response, artefact control for NOD2-RIPK2 interaction inhibitor project, BLA reporter cells, FRET fluorescence (AID 651552). The class given is functional, cell-based.
A further experiment has as its target Paired box protein Pax-8 (Homo sapiens, UniProt Q06710). Description: inhibitors of PAX8-driven TPO luciferase reporter, dose response, RMG-I cells, cherry-pick (AID 687027).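 Note: luciferase reporter driven by Pax8 target thyroperoxidase promoter measured by SteadyGlo luminescence.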 Format: functional, cell-based.
For the next experiment, the target named is Beta-galactosidase (Escherichia coli, UniProt Q8VNN2). Description: beta-galactosidase enzyme inhibitors and activators, dose response, artefact control for CCR6 antagonist project, biochemical, E. coli enzyme, set 3 (AID 504712). The class given is functional.
Experiment [6] can be described thus: HepG2 cell cytotoxicity, dose response, cytotoxicity control for Shn3 inhibitor project, CellTiter-Glo, cherry-picked (AID 624134). Format: functional, cell-based.
A short description of experiment [7]: Shn3 3'UTR reporter inhibitors, dose response, cell-based, Clone20 osteoblasts, firefly luciferase, cherry-picked (AID 624132).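 Note: firefly luciferase luminescence from reporter carrying the Shn3 3'UTR in osteoblasts.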 The class given is functional.
Experiment [8] in a line: non-specific cell cytotoxicity, dose response, cytotoxicity control for PAX8 inhibitor project, plate reader, dry powder samples (AID 743021). The class given is functional, cell-based.
Experiment [9] concerns the target Glyceraldehyde-3-phosphate dehydrogenase (Homo sapiens, UniProt P04406).
In experiment [10] the target is Alkaline phosphatase, placental type (Homo sapiens, UniProt P05187). Description: PLAP enzyme inhibitors, confirmation, biochemical, luminescence (AID 1512). The class given is functional.
The target in experiment [11] is T4, Alkaline phosphatase, tissue-nonspecific isozyme (Homo sapiens, UniProt P05186).
T4 sequence (P05186 whole entry): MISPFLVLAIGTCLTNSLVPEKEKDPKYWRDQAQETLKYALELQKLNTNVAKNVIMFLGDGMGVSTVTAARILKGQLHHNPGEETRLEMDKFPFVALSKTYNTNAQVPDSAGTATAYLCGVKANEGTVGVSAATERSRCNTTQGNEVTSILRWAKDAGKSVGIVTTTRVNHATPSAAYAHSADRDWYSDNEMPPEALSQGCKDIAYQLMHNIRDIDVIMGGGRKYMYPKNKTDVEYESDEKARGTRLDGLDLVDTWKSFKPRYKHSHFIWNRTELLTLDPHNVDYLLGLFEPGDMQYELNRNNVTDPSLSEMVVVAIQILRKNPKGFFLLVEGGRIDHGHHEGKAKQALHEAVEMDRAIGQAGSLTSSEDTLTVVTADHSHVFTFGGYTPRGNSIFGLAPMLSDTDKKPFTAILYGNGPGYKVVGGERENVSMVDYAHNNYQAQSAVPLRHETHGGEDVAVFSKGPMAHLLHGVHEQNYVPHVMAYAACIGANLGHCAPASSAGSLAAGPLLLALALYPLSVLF
Description: human TNAP enzyme inhibitors, SAR follow-up, biochemical, luminescent, dose response (AID 1056).

A further experiment deals with MDA-MB-435. Description: cells. Particulars: Homo sapiens. Format: functional, cell-based.
A short description of another experiment: cells. The class given is functional, cell-based. Particulars: PPC-1.
For another experiment, the target named is Neutrophil collagenase (Homo sapiens, UniProt P22894). Description: MMP13 inhibition and MMP selectivity, late-stage follow-up, selectivity assay for MMP13 inhibitor project, biochemical, probe development, late stage results, panel member MMP-8 [IC50 Assay] (AID 2067).
The target in experiment [12] is Delta-type opioid receptor (Homo sapiens, UniProt P41143). Description: SAR Analysis of Agonists of the DOR Receptor using an Image-Based Assay - Set 3. [Related pubchem assays (depositor defined):AID1777, AID1786]. The class given is functional.
The next experiment concerns the target Mu-type opioid receptor (Homo sapiens, UniProt P35372). Description: SAR Analysis of Agonists of the MOR Receptor using an Image-Based Assay - Set 3. [Related pubchem assays (depositor defined):AID1777, AID1785, AID1786, AID1966, AID2133, AID2136, AID2284, AID2285, AID2352]. Format: functional.
In experiment [13] the target is T5, Kappa-type opioid receptor (Homo sapiens, UniProt P41145). Description: KOR agonist analogs, arrestin-GFP redistribution, SAR follow-up, imaging, image-based, set 3 (AID 488833). The class given is functional.
T5 sequence (P41145 whole entry): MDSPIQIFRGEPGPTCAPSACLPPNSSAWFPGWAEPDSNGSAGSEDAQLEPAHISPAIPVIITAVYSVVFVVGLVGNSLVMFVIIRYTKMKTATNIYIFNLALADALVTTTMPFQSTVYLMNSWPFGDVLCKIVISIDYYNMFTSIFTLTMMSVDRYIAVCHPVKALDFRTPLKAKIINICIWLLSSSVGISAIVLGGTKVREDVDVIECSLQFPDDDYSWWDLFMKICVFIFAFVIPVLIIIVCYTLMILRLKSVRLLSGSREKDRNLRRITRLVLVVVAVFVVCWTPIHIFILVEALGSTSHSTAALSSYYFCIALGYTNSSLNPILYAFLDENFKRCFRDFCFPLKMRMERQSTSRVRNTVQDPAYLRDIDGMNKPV
Experiment [14] addresses T5, Kappa-type opioid receptor. Description: SAR analysis of small molecule agonists of the kappa opioid receptor via a luminescent beta-arrestin assay - Set 3. [Related pubchem assays (depositor defined):AID1777, AID1785, AID1786, AID1966, AID2133, AID2136, AID2284, AID2500]. Format: functional.
Experiment [15] has as its target Voltage-dependent T-type calcium channel subunit alpha-1H (Homo sapiens, UniProt O95180). Description: Cav3.2 T-type channel inhibitors, cell-based, synthetic library set 1, calcium flux (AID 493022). The class given is functional.
Experiment [16] has as its target T6, DNA repair and recombination protein RAD54-like (Homo sapiens, UniProt Q92698).
T6 sequence (Q92698 whole entry): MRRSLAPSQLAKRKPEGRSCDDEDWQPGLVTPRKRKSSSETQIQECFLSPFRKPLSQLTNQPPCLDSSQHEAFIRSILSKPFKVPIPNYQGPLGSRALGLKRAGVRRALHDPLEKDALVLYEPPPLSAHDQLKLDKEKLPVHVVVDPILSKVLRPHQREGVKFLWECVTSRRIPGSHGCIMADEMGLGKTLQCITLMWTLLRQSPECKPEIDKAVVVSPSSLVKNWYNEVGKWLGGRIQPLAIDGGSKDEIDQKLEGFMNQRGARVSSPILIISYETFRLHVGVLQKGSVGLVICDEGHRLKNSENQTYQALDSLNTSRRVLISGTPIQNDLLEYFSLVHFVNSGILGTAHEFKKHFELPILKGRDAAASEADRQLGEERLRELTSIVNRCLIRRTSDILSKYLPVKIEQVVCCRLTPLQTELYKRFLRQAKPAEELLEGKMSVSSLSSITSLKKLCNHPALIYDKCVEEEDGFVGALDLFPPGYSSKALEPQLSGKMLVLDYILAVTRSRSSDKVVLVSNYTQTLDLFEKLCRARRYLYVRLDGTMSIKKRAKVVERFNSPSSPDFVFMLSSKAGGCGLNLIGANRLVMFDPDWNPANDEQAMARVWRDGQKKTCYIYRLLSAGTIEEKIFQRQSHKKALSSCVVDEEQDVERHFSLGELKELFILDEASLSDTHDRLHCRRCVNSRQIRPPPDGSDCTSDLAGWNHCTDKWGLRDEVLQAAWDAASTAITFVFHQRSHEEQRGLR
Description: inhibitors of human RAD54 branch migration, confirmation, biochemical, fluorescence, cherry-picked samples, dose series (AID 651657). The class given is functional.

Another experiment addresses Bcl-2-like protein 10 (Homo sapiens, UniProt Q9HD36). Description: displacers of TR3 peptide from Bcl-B, primary screen, selectivity assay for Bfl-1 inhibitor project, biochemical, fluorescence polarization, FITC-TR3 peptide (AID 748).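 Note: fluorescence polarization from a fluorescein-labelled TR3 peptide binding purified Bcl-B.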

Chain of Glyceraldehyde-3-phosphate dehydrogenase (P04406 whole entry): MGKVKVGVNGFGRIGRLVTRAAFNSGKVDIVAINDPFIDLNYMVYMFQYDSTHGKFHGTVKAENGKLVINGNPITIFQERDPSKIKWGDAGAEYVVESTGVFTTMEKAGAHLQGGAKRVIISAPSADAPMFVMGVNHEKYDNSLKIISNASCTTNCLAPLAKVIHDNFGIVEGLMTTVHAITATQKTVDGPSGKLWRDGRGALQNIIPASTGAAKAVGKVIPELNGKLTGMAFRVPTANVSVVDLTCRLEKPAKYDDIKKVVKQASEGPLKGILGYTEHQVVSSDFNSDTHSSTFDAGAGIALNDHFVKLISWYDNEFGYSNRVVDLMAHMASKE
Chain of Paired box protein Pax-8 (Q06710 whole entry): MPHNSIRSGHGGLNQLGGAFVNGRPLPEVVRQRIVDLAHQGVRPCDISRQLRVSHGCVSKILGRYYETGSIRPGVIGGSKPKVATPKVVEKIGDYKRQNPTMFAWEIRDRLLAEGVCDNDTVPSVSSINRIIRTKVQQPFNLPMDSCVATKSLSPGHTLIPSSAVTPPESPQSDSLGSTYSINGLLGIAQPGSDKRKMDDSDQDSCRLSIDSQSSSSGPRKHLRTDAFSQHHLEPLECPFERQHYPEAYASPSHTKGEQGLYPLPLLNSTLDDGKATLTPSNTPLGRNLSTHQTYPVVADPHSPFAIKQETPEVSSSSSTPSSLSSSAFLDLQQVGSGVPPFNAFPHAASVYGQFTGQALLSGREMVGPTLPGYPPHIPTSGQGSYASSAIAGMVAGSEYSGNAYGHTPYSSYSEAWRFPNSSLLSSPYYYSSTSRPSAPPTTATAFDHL
Chain of Bcl-2-like protein 10 (Q9HD36 whole entry): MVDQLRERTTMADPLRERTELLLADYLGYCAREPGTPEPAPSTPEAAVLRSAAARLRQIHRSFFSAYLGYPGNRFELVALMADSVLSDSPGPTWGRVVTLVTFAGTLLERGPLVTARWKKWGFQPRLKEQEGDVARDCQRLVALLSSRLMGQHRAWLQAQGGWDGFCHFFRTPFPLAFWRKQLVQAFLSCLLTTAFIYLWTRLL

For the compound `Cc1nc2ccccc2n2c(O)c(CC(=O)O)cc12`, the IC50 in experiment [1] was 35 µM (active); on Protein Tat, 6.32 µM (inconclusive). In addition, the AC50 on Keap1/Nrf2 was 12.3 µM (active); on ORF 73 it was 10 µM (active).

Take `N#C/C(C(=O)Nc1ccc(Cl)cc1)=C(/S)Nc1ccccc1`: the IC50 in experiment [2] is 25.5 µM (active); in [3] it was 52 µM (inactive); in experiment [4] it was 19.6 µM (inactive); in [5], 13.9 µM (active); at Large T antigen, 16.5 µM (active); at Beta Lactamase, 49.8 µM (inactive).

Turning to `O=C(OCc1ccccc1)N(CCCCN(CCCNCc1ccccc1)C(=O)OCc1ccccc1)CCCNCc1ccccc1`, the AC50 on Paired box protein Pax-8 is 9.11 µM (active); in [6] it was 4.16 µM (active); in experiment [7] it was 5.36 µM (active); in experiment [8], 10.3 µM (active). Besides, the IC50 on Beta-galactosidase is > 66.6 µM (inactive).

As for `CC(C)(C)NC(=O)c1cc(-c2cc(F)c(Cl)cc2Cl)n[nH]1`, the IC50 in [9] was > 100 µM (not active); in experiment [10], > 100 µM (inactive); in [11], 1.08 µM (active).

For the compound `COc1cc(-c2ccccc2)nc(S)n1`, the IC50 with MDA-MB-435 and in “cells” was > 10 µM (inactive) each time.

For the compound `Oc1nc(SCc2ccc(Cl)cc2)nc2c1CCC2`, the IC50 at Neutrophil collagenase is > 39.8 µM (active).

Consider `N#Cc1ccc(CSc2nnc(-c3ccccn3)n2Cc2ccco2)cc1`, for which the EC50 in experiment [12] is > 64 µM (inactive); at Mu-type opioid receptor, > 32 µM (inactive); in experiment [13] it was 19.3 µM (inactive); in experiment [14] it was 6.79 µM (active).

With `O=C(COc1ccc(F)c(Cl)c1)Nc1nnc(-c2ccc3c(c2)CCCC3)o1`, the EC50 in experiment [15] was 2.4 µM (active).

On to `CN(C)CCSc1nc(N)c2c3c(sc2n1)CN(C)CC3`, for which the AC50 in experiment [16] was 28.9 µM (active). For the same compound, the IC50 at Bcl-2-like protein 10 is 46.2 µM (active).
